Measured values taken from article PMC4448988 (Pharmacology Research & Perspectives, 2015).

Legend:
[1] = molecular target: human CYP24A1 (Homo sapiens, UniProt Q07973); format: in vitro ADME; details: pH 7.4
[2] = system: ED-71 O-dehydroxypropylation activity in human small intestine microsomes; format: in vitro ADME; details: 1 μmol/L ketoconazole

| Compound | Relative kcat/Km [1] | ED-71 O-dehydroxypropylation activity reduced to (remaining activity) [2] |
| --- | --- | --- |
| C=C1/C(=C\C=C2/CCC[C@]3(C)[C@@H]([C@H](C)CCCC(C)(C)O)CC[C@@H]23)C[C@@H](O)C[C@@H]1O [1α,25(OH)2D3, 1α,25-dihydroxyvitamin D3] | 1 |  |
| CC(=O)N1CCN(c2ccc(OCC3COC(Cn4ccnc4)(c4ccc(Cl)cc4Cl)O3)cc2)CC1 (centres unmarked) [ketoconazole] |  | 37% |
